Values after ≈ are worked out from the molar mass of the structure shown.
Experiments:
[1] = test system: A498; experiment: Cytotoxicity against human A-498 cells; assay type: functional; conditions: Homo sapiens, A498; read-out: ED50 (the source's name)
[2] = test system: MCF7; experiment: Cytotoxicity against human MCF7 cells; assay type: functional; conditions: for EC50: Homo sapiens, MCF7, read-out: ED50 (the source's name)
[3] = test system: HT-29; experiment: Cytotoxicity against human HT-29 cells; assay type: functional; conditions: Homo sapiens, HT-29; read-out: ED50 (the source's name)
[4] = test system: A549; experiment: Cytotoxicity against human A549 cells; assay type: functional; conditions: for EC50: Homo sapiens, A549, read-out: ED50 (the source's name)
[5] = test system: MIA PaCa-2; experiment: Cytotoxicity against human MIA PaCa2 cells; assay type: functional; conditions: for EC50: Homo sapiens, MIA PaCa-2, read-out: ED50 (the source's name)
[6] = test system: PC-3; experiment: Cytotoxicity against human PC-3 cells; assay type: functional; conditions: for EC50: Homo sapiens, PC-3, read-out: ED50 (the source's name)
[7] = Toxicity in brine shrimp; assay type: organism-based; conditions: artemia, in vivo

SMILES	EC50 [1] [µg/mL]	EC50 [2] [µg/mL]	EC50 [3] [µg/mL]	EC50 [4] [µg/mL]	EC50 [5] [µg/mL]	EC50 [6] [µg/mL]	LC50 [7] [µg/mL]	ED50 [2]	ED50 [4]	ED50 [5]	ED50 [6]
CC[C@H](O)[C@H](O)CCCCCC[C@H](O)[C@H]1CC[C@H]([C@H]2CC[C@H]([C@H](O)CCCCCCCCCCCCC3=C[C@H](C)OC3=O)O2)O1 [BULLATETROCIN]	> 1	0.5 (≈ 0.783 µM)	0.33 (≈ 0.516 µM)	0.35 (≈ 0.548 µM)	> 1	> 1	0.31 (≈ 0.485 µM)	–	–	–	–
CCCCCCCCCC[C@@H](O)[C@H]1CC[C@@H]([C@H]2CC[C@H]([C@H](O)CCCC[C@H](O)CCCCC[C@@H](O)CC3=C[C@H](C)OC3=O)O2)O1	0.01 (≈ 0.0157 µM)	–	0.14 (≈ 0.219 µM)	–	0.2 (≈ 0.313 µM)	0.38 (≈ 0.595 µM)	–	1.9 ×10⁻⁸ ug/ml	1 ×10⁻⁸ ug/ml	–	–
CCCCCCCCCCCC[C@H](O)[C@@H]1CC[C@H]([C@H](O)CCCCCC(=O)CCCC[C@@H](O)CC2=C[C@H](C)OC2=O)O1 [MOSIN C]	> 1	> 1	> 1	0.6 (≈ 1.01 µM)	–	> 1	–	–	–	1.2 ×10⁻⁴ ug/ml	–
CCCCCCCCCCCC[C@H](O)[C@H](O)CC[C@H](O)[C@@H]1CC[C@@H](C[C@H](O)CCCCC[C@@H](O)CC2=C[C@H](C)OC2=O)O1 [ANNOPENTOCIN C]	0.26 (≈ 0.424 µM)	0.3 (≈ 0.489 µM)	1.2 (≈ 1.96 µM)	0.021 (≈ 0.0343 µM)	0.43 (≈ 0.702 µM)	0.23 (≈ 0.375 µM)	14 (≈ 22.8 µM)	–	–	–	–
CCCCCCCCCCCC[C@@H](O)[C@H]1CC[C@H]([C@H](O)CCCC(O)C(O)CCCCC[C@@H]2CC(CC(C)=O)C(=O)O2)O1 (some centres undefined)	0.12 (≈ 0.196 µM)	0.61 (≈ 0.995 µM)	< 0.01	< 0.01	< 0.01	1.3 (≈ 2.12 µM)	4.8 (≈ 7.83 µM)	–	–	–	–
CCCCCCCCCC[C@@H](O)[C@H]1CC[C@H]([C@H]2CC[C@H]([C@H](O)CCCC[C@H](O)CCCCC[C@@H](O)CC3=C[C@H](C)OC3=O)O2)O1	> 1	0.33 (≈ 0.516 µM)	0.76 (≈ 1.19 µM)	0.67 (≈ 1.05 µM)	> 1	0.53 (≈ 0.83 µM)	0.43 (≈ 0.673 µM)	–	–	–	–
CCCCCCCCCCCC[C@@H](O)[C@H]1CC[C@H]([C@H](O)CCCCC[C@@H](O)CCCCCC[C@@H]2CC(CC(C)=O)C(=O)O2)O1 (mixture of isomers)	1.5	1.7	1.4	1.9	0.0045	2.2	2.7	–	–	–	–
CCCCCCCCCC/C=C\CC[C@@H](O)[C@H]1CC[C@H]([C@H](O)CCCCCC(=O)CCCC[C@@H]2CC(CC(C)=O)C(=O)O2)O1 (some centres undefined)	> 1	> 1	> 1	> 1	0.22 (≈ 0.354 µM)	0.032 (≈ 0.0515 µM)	0.44 (≈ 0.709 µM)	–	–	–	–
CCCCCCCCCCCC[C@@H](O)[C@H]1CC[C@H]([C@H](O)CCC(O)CCCC(O)CCC[C@@H](O)CC2=C[C@H](C)OC2=O)O1 (some centres undefined) [MURICAPENTOCIN]	1.7 (≈ 2.77 µM)	1.9 (≈ 3.1 µM)	0.071 (≈ 0.116 µM)	0.19 (≈ 0.31 µM)	0.05 (≈ 0.0816 µM)	0.45 (≈ 0.734 µM)	1.8 (≈ 2.94 µM)	–	–	–	–
CCCCCCCCCCCCCCCC[C@@H](O)[C@H]1CC[C@H]([C@H](O)CC[C@H](O)CCCCC[C@@H](O)CC2=C[C@H](C)OC2=O)O1 [GONIOTETRACIN]	1.5 (≈ 2.4 µM)	1.7 (≈ 2.72 µM)	1.5 (≈ 2.4 µM)	0.39 (≈ 0.624 µM)	0.026 (≈ 0.0416 µM)	0.021 (≈ 0.0336 µM)	0.2 (≈ 0.32 µM)	–	–	–	–
CCCCCCCCCC[C@@H](O)[C@H]1CC[C@H]([C@H]2CC[C@H]([C@H](O)CCCCC[C@@H](O)CCCCC3CC(CC(C)=O)C(=O)O3)O2)O1 (some centres undefined)	0.036 (≈ 0.0563 µM)	0.0012 (≈ 0.00188 µM)	1.4 (≈ 2.19 µM)	0.077 (≈ 0.121 µM)	–	0.16 (≈ 0.25 µM)	0.35 (≈ 0.548 µM)	–	–	1.7 ×10⁻⁴ ug/ml	–
CCCCCCCCCCCC[C@@H](O)[C@H]1CC[C@H]([C@H](O)CCCCCC[C@H](O)CCCCCCCC2=C[C@H](C)OC2=O)O1	0.15 (≈ 0.246 µM)	–	0.14 (≈ 0.23 µM)	–	–	0.17 (≈ 0.279 µM)	0.13 (≈ 0.213 µM)	5.8 ×10⁻⁷ ug/ml	6.5 ×10⁻⁷ ug/ml	1 ×10⁻⁵ ug/ml	–
CCCCCCCCCCCC[C@@H](O)[C@H]1CC[C@H]([C@H](O)CCCCCC[C@H](O)CCCCC[C@@H]2CC(CC(C)=O)C(=O)O2)O1 (mixture of isomers)	1.4	3.2	0.26	2.6	0.68	1	0.31	–	–	–	–
CCCCCCCCCCCC[C@@H](O)[C@H]1CC[C@H]([C@H](O)CCCCCC(O)CCCCCCC2=C[C@H](C)OC2=O)O1 (some centres undefined)	2.2 (≈ 3.79 µM)	2.2 (≈ 3.79 µM)	1.7 (≈ 2.93 µM)	3.9 (≈ 6.71 µM)	2.9 (≈ 4.99 µM)	2.7 (≈ 4.65 µM)	8.9 (≈ 15.3 µM)	–	–	–	–
CCCCCCCCCCCC[C@@H](O)[C@H]1CC[C@H]([C@H](O)CCCC[C@H](O)CCCCCCC[C@@H](O)CC2=C[C@H](C)OC2=O)O1 [ANNOGLACIN B]	0.4 (≈ 0.64 µM)	–	0.0053 (≈ 0.00848 µM)	0.0028 (≈ 0.00448 µM)	–	–	0.17 (≈ 0.272 µM)	6.2 ×10⁻⁴ ug/ml	–	1.2 ×10⁻⁶ ug/ml	8.4 ×10⁻⁴ ug/ml
CCCCCCCCCCCCCC/C=C\[C@@H](O)C[C@H](O)[C@@H]1CC[C@@H](CCCCC[C@@H](O)CC2=C[C@H](C)OC2=O)O1 [GONIOTRIONIN]	0.002 (≈ 0.00345 µM)	–	0.34 (≈ 0.587 µM)	0.0077 (≈ 0.0133 µM)	0.0054 (≈ 0.00933 µM)	0.36 (≈ 0.622 µM)	–	5.3 ×10⁻⁶ ug/ml	–	–	–
CCCCCCCCCCCC[C@@H](O)[C@H]1CCC(C2CCC(CC(O)CCCCC[C@@H](O)CC3=C[C@H](C)OC3=O)O2)O1 (some centres undefined) [ROLLINACIN]	1.6 (≈ 2.69 µM)	0.16 (≈ 0.269 µM)	2.1 (≈ 3.53 µM)	0.046 (≈ 0.0773 µM)	2 (≈ 3.36 µM)	2.5 (≈ 4.2 µM)	3.5 (≈ 5.88 µM)	–	–	–	–
CCCCCCCCCCCC[C@H](O)[C@H]1CC[C@H]([C@H]2CC[C@H]([C@H](O)CCCCCCCC[C@@H](O)CC3=C[C@H](C)OC3=O)O2)O1 [SQUAMOTACIN]	–	–	–	–	–	–	–	–	–	–	1 ×10⁻⁸ ug/ml
CCCCCCCCCCCC[C@@H](O)[C@H](O)CC[C@H](O)[C@@H]1CC[C@@H](C[C@H](O)CCCCC[C@@H](O)CC2=C[C@H](C)OC2=O)O1 [ANNOPENTOCIN A]	0.61 (≈ 0.995 µM)	18 (≈ 29.4 µM)	1.6 (≈ 2.61 µM)	0.17 (≈ 0.277 µM)	0.036 (≈ 0.0587 µM)	1.1 (≈ 1.79 µM)	8.9 (≈ 14.5 µM)	–	–	–	–
CCCCCCCCCCCCCC[C@H](O)CCCCCCC[C@H](O)CCCCC[C@@H](O)CC1=C[C@H](C)OC1=O [LONGANIN]	0.039 (≈ 0.0688 µM)	3.4 (≈ 6 µM)	0.61 (≈ 1.08 µM)	0.011 (≈ 0.0194 µM)	0.011 (≈ 0.0194 µM)	0.4 (≈ 0.706 µM)	12 (≈ 21.2 µM)	–	–	–	–
CCCCCCCCCCCC[C@@H](O)[C@H]1CC[C@H]([C@H]2CCC[C@@H]([C@@H](O)CCCCCCC[C@@H](O)CC3=C[C@H](C)OC3=O)O2)O1 [MUCONIN]	0.18 (≈ 0.289 µM)	–	0.39 (≈ 0.626 µM)	0.0045 (≈ 0.00722 µM)	–	0.58 (≈ 0.931 µM)	–	2.4 ×10⁻⁴ ug/ml	–	5.4 ×10⁻⁴ ug/ml	–
CCCCCCCCCCCC[C@@H](O)[C@@H](O)CC[C@H](O)[C@@H]1CC[C@@H](CCC[C@@H](O)[C@H](O)CC[C@@H](O)CC2=C[C@H](C)OC2=O)O1 [MURIHEXOCIN]	2.5 (≈ 3.98 µM)	3.8 (≈ 6.04 µM)	1.3 (≈ 2.07 µM)	1.1 (≈ 1.75 µM)	0.49 (≈ 0.779 µM)	0.86 (≈ 1.37 µM)	10 (≈ 15.9 µM)	–	–	–	–
CCCCCCCCCC[C@@H]1O[C@H]([C@@H]2CC[C@H]([C@H](O)CCCCCCCCCC[C@@H](O)CC3=C[C@H](C)OC3=O)O2)CC[C@H]1O [JIMENEZIN]	0.049 (≈ 0.0787 µM)	> 0.1	0.0043 (≈ 0.0069 µM)	0.016 (≈ 0.0257 µM)	–	–	0.0057 (≈ 0.00915 µM)	–	–	1.7 ×10⁻⁴ ug/ml	2.8 ×10⁻⁴ ug/ml
CCCCCCCCCCCC[C@H]1O[C@@H]([C@H](O)CCCC[C@H](O)CCCCC[C@@H](O)CC2=C[C@H](C)OC2=O)CC[C@H]1O [PYRANICIN]	0.18 (≈ 0.302 µM)	0.39 (≈ 0.653 µM)	1.2 (≈ 2.01 µM)	0.28 (≈ 0.469 µM)	0.0013 (≈ 0.00218 µM)	0.41 (≈ 0.687 µM)	0.3 (≈ 0.503 µM)	–	–	–	–
CCCCCCCCCCCCCCCCC[C@@H](O)[C@H]1C[C@H](O)[C@H]([C@H]2CC[C@H]([C@H](O)CCCCCC3=C[C@H](C)OC3=O)O2)O1 [MUCOXIN]	0.84 (≈ 1.35 µM)	0.0037 (≈ 0.00594 µM)	0.61 (≈ 0.979 µM)	0.036 (≈ 0.0578 µM)	0.33 (≈ 0.53 µM)	0.31 (≈ 0.498 µM)	–	–	–	–	–
CCCCCCCCCCCC[C@H](O)[C@H]1CC[C@H]([C@H](O)CCCCCC(=O)CCCC[C@@H](O)CC2=C[C@H](C)OC2=O)O1 [MOSIN B]	> 1	> 1	> 1	0.94 (≈ 1.58 µM)	–	> 1	–	–	–	1.2 ×10⁻⁴ ug/ml	–
CCCCCCCCCCCC/C=C\CC[C@@H](O)[C@H]1CC[C@H]([C@H](O)CC[C@H](O)CCCCC[C@H]2CC(CC(C)=O)C(=O)O2)O1 (mixture of isomers)	2.2	3.7	2.9	1.8	0.045	1.5	< 0.3	–	–	–	–
CCCCCCCCCCCC[C@@H](O)[C@H]1CC[C@@H]([C@@H]2CC[C@@H](CCCCCCC[C@@H](O)CC3=C[C@H](C)OC3=O)O2)O1 [ROLLIDECIN C]	1.4 (≈ 2.42 µM)	1.1 (≈ 1.9 µM)	0.063 (≈ 0.109 µM)	1.3 (≈ 2.25 µM)	0.11 (≈ 0.19 µM)	0.29 (≈ 0.501 µM)	–	–	–	–	–
CCCCCCCCCCCC[C@@H](O)[C@H]1CC[C@@H]([C@@H]2CC[C@@H](CCCCCCCCC[C@@H](O)CC3=C[C@H](C)OC3=O)O2)O1 [ROLLIDECIN D]	4 (≈ 6.59 µM)	5 (≈ 8.24 µM)	5.4 (≈ 8.9 µM)	5.9 (≈ 9.72 µM)	1 (≈ 1.65 µM)	1.9 (≈ 3.13 µM)	–	–	–	–	–

Reference: ChEMBL document CHEMBL1141818, “Annonaceous acetogenins: recent progress” (J Nat Prod, 1999)
